Measured values: patent publication US11053204B2, “Pyrimidinyloxy benzene derivatives as herbicides” (FMC Corporation, priority 2015, dated 2021)

What was measured:
Type in all cases: in vivo
[1] = tested on: sedge, umbrella (small-flower umbrella sedge, Cyperus difformis); assay: Test B flooded paddy test, plant response rating; settings: 250 g ai/ha; Flood; scale of 0 to 100 where 0 is no effect and 100 is complete control; 13 to 15 days
In short: (§1)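 In-water treatment: compound dosed into 3 cm flood over soil, water level unchanged throughout. Controls run alongside; visual assessment at day 13–15.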

rice (Oryza sativa) = assay: Test B flooded paddy test, plant response rating; settings: 250 g ai/ha; Flood; scale of 0 to 100 where 0 is no effect and 100 is complete control; 13 to 15 days
In short: as §1

[2] = tested on: barnyardgrass (Echinochloa crus-galli); assay: Test B flooded paddy test, plant response rating; settings: 250 g ai/ha; Flood; scale of 0 to 100 where 0 is no effect and 100 is complete control; 13 to 15 days
In short: as §1

[3] = tested on: surinam grass (Brachiaria decumbens); assay: Test C preemergence, plant response rating
[4] = tested on: wild poinsettia (Euphorbia heterophylla); assay: Test C preemergence, plant response rating
soybean (Glycine max) = assay: Test C preemergence, plant response rating; settings: Preemergence
In short: (§2)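 Pre-emergence: seeds sown in loam soil–sand blend or silt loam and sprayed with test chemicals in a non-phytotoxic solvent mixture with surfactant. Post-emergence: plants 2 to 18 cm (1- to 4-leaf stage) in peat-based potting medium, same formulation. Greenhouse 13 to 15 d; visual rating 0 (no effect) to 100 (complete control) versus controls.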

[5] = tested on: blackgrass (Alopecurus myosuroides); assay: Test C preemergence, plant response rating; settings: Preemergence
In short: as §2

[6] = tested on: lambsquarters (Chenopodium album); assay: Test C preemergence, plant response rating; settings: Preemergence
In short: as §2

[7] = tested on: ryegrass, Italian (Italian ryegrass, Lolium multiflorum); assay: Test C preemergence, plant response rating; settings: Preemergence
In short: as §2

[8] = tested on: wheat (winter wheat, Triticum aestivum); assay: Test C preemergence, plant response rating; settings: Preemergence
In short: as §2

[9] = tested on: waterhemp (common waterhemp, Amaranthus rudis); assay: Test C preemergence, plant response rating; settings: Preemergence
In short: as §2

[10] = tested on: velvetleaf (Abutilon theophrasti); assay: Test C preemergence, plant response rating; settings: Preemergence
In short: as §2

[11] = tested on: crabgrass, large (large crabgrass, Digitaria sanguinalis); assay: Test C preemergence, plant response rating; settings: Preemergence
In short: as §2

[12] = tested on: nutsedge, yellow (yellow nutsedge, Cyperus esculentus); assay: Test C preemergence, plant response rating; settings: Preemergence
In short: as §2

[13] = tested on: morningglory (Ipomoea coccinea); assay: Test C preemergence, plant response rating; settings: Preemergence
In short: as §2

corn (Zea mays) = assay: Test C preemergence, plant response rating; settings: Preemergence
In short: as §2

[14] = tested on: oilseed rape (Brassica napus); assay: Test C preemergence, plant response rating; settings: Preemergence
In short: as §2

[15] = tested on: ragweed (common ragweed, Ambrosia elatior); assay: Test C preemergence, plant response rating; settings: Preemergence
In short: as §2

[16] = tested on: foxtail, giant (giant foxtail, Setaria faberii); assay: Test C preemergence, plant response rating; settings: Preemergence
In short: as §2

[17] = tested on: oat, wild (wild oat Avena fatua); assay: Test C preemergence, plant response rating

## FC(F)(F)CCCCc1c(Br)cccc1Oc1ncc(Cl)cn1 [Compound 138]
[1]
  Plant response rating, Sedge, Umbrella: 85
Rice (Oryza sativa)
  Plant response rating, Rice: 45
[2]
  Plant response rating, Barnyardgrass: 50
[3]; 31 g ai/ha, scale 0 to 100
  Plant response rating, Surinam Grass: 65
[3]; 62 g ai/ha, scale 0 to 100
  Plant response rating, Surinam Grass: 65
[3]; 125 g ai/ha, scale of 0 to 100
  Plant response rating, Surinam Grass: 75
[4]; 31 g ai/ha, scale 0 to 100
  Plant response rating, Poinsettia, Wild: 0
[4]; 62 g ai/ha, scale 0 to 100
  Plant response rating, Poinsettia, Wild: 5
[4]; 125 g ai/ha, scale of 0 to 100
  Plant response rating, Poinsettia, Wild: 50
Soybean (Glycine max); 125 g ai/ha, scale of 0 to 100
  Plant response rating, Soybean: 5
Soybean (Glycine max); 31 g ai/ha, scale 0 to 100
  Plant response rating, Soybean: 0
Soybean (Glycine max); 62 g ai/ha, scale 0 to 100
  Plant response rating, Soybean: 0
[5]; 125 g ai/ha, scale of 0 to 100
  Plant response rating, Blackgrass: 90
[5]; 16 g ai/ha, scale 0 to 100
  Plant response rating, Blackgrass: 10
[5]; 31 g ai/ha, scale 0 to 100
  Plant response rating, Blackgrass: 50
[5]; 62 g ai/ha, scale 0 to 100
  Plant response rating, Blackgrass: 80
[6]; 125 g ai/ha, scale of 0 to 100
  Plant response rating, Lambsquarters: 70
[6]; 31 g ai/ha, scale 0 to 100
  Plant response rating, Lambsquarters: 35
[6]; 62 g ai/ha, scale 0 to 100
  Plant response rating, Lambsquarters: 25
[7]; 125 g ai/ha, scale of 0 to 100
  Plant response rating, Ryegrass, Italian: 80
[7]; 31 g ai/ha, scale 0 to 100
  Plant response rating, Ryegrass, Italian: 10
[7]; 62 g ai/ha, scale 0 to 100
  Plant response rating, Ryegrass, Italian: 20
[8]; 125 g ai/ha, scale of 0 to 100
  Plant response rating, Wheat: 10
[8]; 31 g ai/ha, scale 0 to 100
  Plant response rating, Wheat: 5
[8]; 62 g ai/ha, scale 0 to 100
  Plant response rating, Wheat: 5
[9]; 125 g ai/ha, scale of 0 to 100
  Plant response rating, Waterhemp: 98
[9]; 31 g ai/ha, scale 0 to 100
  Plant response rating, Waterhemp: 85
[9]; 62 g ai/ha, scale 0 to 100
  Plant response rating, Waterhemp: 100
[10]; 125 g ai/ha, scale of 0 to 100
  Plant response rating, Velvetleaf: 50
[10]; 31 g ai/ha, scale 0 to 100
  Plant response rating, Velvetleaf: 25
[10]; 62 g ai/ha, scale 0 to 100
  Plant response rating, Velvetleaf: 20
[11]; 125 g ai/ha, scale of 0 to 100
  Plant response rating, Crabgrass, Large: 98
[11]; 16 g ai/ha, scale 0 to 100
  Plant response rating, Crabgrass, Large: 75
[11]; 31 g ai/ha, scale 0 to 100
  Plant response rating, Crabgrass, Large: 95
[11]; 62 g ai/ha, scale 0 to 100
  Plant response rating, Crabgrass, Large: 98
[12]; 125 g ai/ha, scale of 0 to 100
  Plant response rating, Nutsedge, Yellow: 0
[12]; 31 g ai/ha, scale 0 to 100
  Plant response rating, Nutsedge, Yellow: 0
[12]; 62 g ai/ha, scale 0 to 100
  Plant response rating, Nutsedge, Yellow: 0
[13]; 125 g ai/ha, scale of 0 to 100
  Plant response rating, Morningglory: 10
[13]; 31 g ai/ha, scale 0 to 100
  Plant response rating, Morningglory: 0
[13]; 62 g ai/ha, scale 0 to 100
  Plant response rating, Morningglory: 0
Corn (Zea mays); 125 g ai/ha, scale of 0 to 100
  Plant response rating, Corn: 5
Corn (Zea mays); 16 g ai/ha, scale 0 to 100
  Plant response rating, Corn: 0
Corn (Zea mays); 31 g ai/ha, scale 0 to 100
  Plant response rating, Corn: 0
Corn (Zea mays); 62 g ai/ha, scale 0 to 100
  Plant response rating, Corn: 5
[14]; 125 g ai/ha, scale of 0 to 100
  Plant response rating, Oilseed Rape: 20
[14]; 31 g ai/ha, scale 0 to 100
  Plant response rating, Oilseed Rape: 0
[14]; 62 g ai/ha, scale 0 to 100
  Plant response rating, Oilseed Rape: 5
[15]; 125 g ai/ha, scale of 0 to 100
  Plant response rating, Ragweed: 10
[15]; 31 g ai/ha, scale 0 to 100
  Plant response rating, Ragweed: 0
[15]; 62 g ai/ha, scale 0 to 100
  Plant response rating, Ragweed: 0
[16]; 125 g ai/ha, scale of 0 to 100
  Plant response rating, Foxtail, Giant: 100
[16]; 31 g ai/ha, scale 0 to 100
  Plant response rating, Foxtail, Giant: 80
[16]; 62 g ai/ha, scale 0 to 100
  Plant response rating, Foxtail, Giant: 85
[17]; 31 g ai/ha, scale 0 to 100
  Plant response rating, Oat, Wild: 0
[17]; 62 g ai/ha, scale 0 to 100
  Plant response rating, Oat, Wild: 5
[17]; 125 g ai/ha, scale of 0 to 100
  Plant response rating, Oat, Wild: 30
